Test [1] has as its system 5T33mM cells. The test is described as follows: survival and serum IgG2b of mice injected with 5T33mM cells. It counts as in vivo, mouse. The note with it: subcutaneous osmotic pump, 25 mg/mL, 0.5 μl/hr, 21 days, started at the time of cell injection; versus PBS.
Procedure: FIG. 5 is a graph showing the survival of C57BL/6 mice after injection with 10×10^6 5T33^eGFP cells. Osmotic pumps are installed at the time of injection, and either AMD3100 or PBS is implanted. The osmotic pumps are changed every 7 days, and the pump administration is discontinued after 21 days.
AMD3100 is delivered via a subcutaneous osmotic pump at a concentration of 25 mg/mL and a delivery rate of 0.5 μl/hr. The osmotic devices delivered the drug for 21 days.
In test [2] the test system is 5T33mM cells. The note with it: recipient mice treated with inhibitor. As to the method: AMD3100 and PBS is implanted, and the survival rate after 2 hours, 24 hours and 6 days is measured.
5T33mM cells, obtained as described above, are injected into recipient mice.

Another test relates to MM cells. The test is described as follows: transwell migration assay of MM cells toward SDF-1. It counts as cell-based. As to the method: AMD3100 was evaluated in amounts of 0-100 μM with all wells containing 20 nM SDF-1 in the lower chambers. […] 10 μM of anti-CXCR4MAB171 antibody inhibited migration to 53%, and 200 μM of MAB171 inhibited migration to 35% compared to a control (P=0.007).
The transwell migration assay was used to test the effect of the CXCR4 inhibitor AMD3100 on the migration of MM cells.
Similarly, the transwell migration assay was used to test the effect of the anti-CXCR 4 antibody MAB171 (10-800 μM) for 16 hours and its IgG2a isotype control on the in vitro migration of MM cells. […] Anti-CXCR4MAB171 inhibited 10 μM migration to 53%, and 200 μM migration to 35% compared with the control (P=0.007).

`c1cc(CN2CCCNCCNCCCNCC2)ccc1CN1CCCNCCNCCCNCC1` [AMD3100]: in the test with 5T33mM cells [1], the “survival of mice injected with 5T33 cells” value is recorded as “an increase in survival is observed”. For the same molecule, the “homing of 5T33mM cells to bone marrow” value in the test with 5T33mM cells [2] (2 hours) was “does not affect”. Also, the “retention of 5T33mM cells in bone marrow” value in the test with 5T33mM cells [2] (24 hours) is on record as “does not affect”. For the same molecule, the “proliferation/survival of 5T33mM cells in bone marrow” value with 5T33mM cells [2] (6 days) is recorded as “significantly reduces”. Also, the inhibition at 10 µM with MM cells (10 μM AMD3100, 16 hours, 20 nM SDF-1 in lower chambers, read-out: inhibition of migration of MM cells compared with control) was 70%. The “dose dependence of inhibition of MM cell migration” value in the test on MM cells (AMD3100 0-100 μM, MAB171 0-400 μg/mL or 10-800 μM, 16 hours) was “dose-dependent inhibition of migration”. In the test with MM cells (AMD3100 above 10 μM up to 100 μM, 16 hours), the “inhibition of migration at doses higher than 10 μM” value is “did not induce further inhibition of migration”.

The values above are taken from US8569280B2, “Methods for the treatment of multiple myeloma” (Immune Disease Institute, priority 2005, dated 2013).
